Assay results as given in patent US7531164B2 (priority 2005, dated 2009).

Assays:
[1] = Working Example XIV: unstable angina patient, abciximab plus NO inhibitor/scavenger; type: in vivo, human; conditions: L-NMA (5g) or 10 mg vitamin B-12 IV with abciximab and heparin; at 30 days
Protocol: A patient with unstable angina presents to the emergency room.
Abciximab is administered at 0.25 mg/kg as an intravenous bolus followed by infusion of […] for 12 hours. Heparin is concurrently administered in a different line with an initial dosage of 70 μg/kg with continuing infusion to maintain ACT of 200-300.
L-NMA (5g) or 10 mg vitamin B-12 is administered IV through a different line.
Need for urgent revascularization is only 2% at 30 days.

E.coli and HIV = test: Working Example II: prophylaxis after exposure to blood infected by E.coli and HIV; type: in vivo, human; conditions: B12 10 mg with AZT 600 mg and ampicillin 1 gm for 6 days; at a week
Protocol: A patient is exposed to blood infected by “E.coli” and HIV following coronary artery bypass surgery. AZT (prophylactic dose of 600 mg) and B12 (which scavenges NO) (dose 10 mg) are given in combination with ampicillin (prophylactic dose of 1 gm) for 6 days Bacterial and HIV titer are undetectable at a week.

[2] = tested on: EGFR expressing metastatic colorectal cancer; test: Working Example XIII: EGFR expressing metastatic colorectal cancer patient; type: in vivo, human; conditions: 5 gm L-NMA or 10 mg vitamin B12 infused concurrently with cebuximab
Protocol: A person with EGFR expressing metastatic colorectal cancer is given an initial loading dose of 400 mg/m^2 cebuximab as a 120 minute infusion at 2.5 mL/min with weekly maintenance doses of 250 mg/M^2 over 60 minutes at 2.5 mL/min. Concurrently the patient is infused with 5 gm L-NMA or 10 mg vitamin B12.

colon cancer = test: Working Example III: prophylaxis of colon cancer in immunocompromised patient; type: in vivo, human; conditions: 5 gm LNMA or 10 mg vitamin B12 infused concurrently with cetuximab; two years later
Protocol: An immunocompromised patient at risk for colon cancer is given an initial loading dose of 200 mg/M^2 cetuximab as a 120 minute infusion with weekly maintenance doses of 125 mg/M^2 over 60 minutes weekly. Perfusion rate is 4 mL/min. Concurrently the patient is infused with 5 gm LNMA or 10 mg vitamin B12.
For each 50 ml vial: • 100 mg cetuximab • at a concentration of 2 mg/ml • 1mg LNMA or 2 mg Vitamin B-12 • 8.48 mg/ml sodium chloride • 1.88 mg/ml sodium phosphate dibasic heptahydrate • 0.42 mg/ml sodium phosphate monohydrate • water for injection to […]
The composition is administered in the case of Working Example III.

[3] = Working Example XII: atherosclerosis patient, anti-VEGFR plus NO inhibitor/scavenger; type: in vivo, human; conditions: 2 gms/day L-NMA or 10 mg/day vitamin B-12 with 100 mg/kg anti-VEGFR three times a week; six months later
Protocol: A person with atherosclerosis is administered 100 mg/kg anti-VEGFR three times a week via infusion and 2 gms/day of L-NMA or 10 mg/day vitamin B-12.

VSV = type: cell-based
AMLV = type: cell-based; conditions: AMLV envelope
HIV (denoted NL4-3) = type: cell-based; conditions: NL4-3 envelope
hepatitis C = test: Working Example XI: transfusion of hepatitis C infected whole blood containing L-NMA; type: in vivo, human; conditions: whole blood containing 1 gm L-NMA per unit, infected with hepatitis C
Description: Whole blood containing 1 gm L-NMA per unit is transfused into a patient.

influenza A = test: Working Example XVII: prophylaxis in immunocompromised patient exposed to influenza; type: in vivo, human; conditions: 5 gms/day L-NMA p.o. for one week, then amantadine 100 mg p.o. b.i.d. for two weeks
Protocol: An immunocompromised patient is exposed to a patient diagnosed with influenza. The patient is given 5 gms/day L-NMA p.o. After one week the patient tests positive for influenza A and L-NMA administration is stopped and the patient is given amantadine, 100 mg p.o., b.i.d. for two weeks.

[4] = Working Example V: asthma exacerbation frequency; type: in vivo, human; conditions: 1 gm/day LNMA four times a week for a year; normally four exacerbations of asthma per year
Description: An asymptomatic person who normally has four exacerbations of asthma per year is given 1 gm/day LNMA four times a week for a year. Exacerbation frequency decreases to once a year.

[5] = Working Example IV: beta agonist response in heart failure patient; type: in vivo, human; conditions: 0.1 mg/kg LNMA for 24 hours; improves from 3 L/min
Protocol: A person with heart failure is admitted to a hospital for a dobutamine holiday (where a congestive heart failure patient spends 1-2 days in the hospital to receive a dobutamine drip every month or so). The patient is administered 0.1 mg/kg LNMA for 24 hours. Beta agonist sensitive response as measured by cardiac output improves from 3 L/min. to 3.5 L/min.

HIV = test: Working Example I: prophylaxis after exposure to HIV positive partner; type: in vivo, human; conditions: 1 gm L-NMMA Q 6 hrs for 3 days with AZT 600 mg; day 7
Protocol: A person finds that their partner the previous night is HIV positive. They present to the Emergency Room where they are given a prophylactic dose of AZT (600 mg dose) and a dose of 1 gm L-NMMA Q 6 hrs for 3 days. Blood titers for HIV are restive at day 7.

[6] = compared to envelope protein with no anti-CD4 or inhibitor

Row | SMILES | Need for urgent revascularization [1] | Bacterial and HIV titer (E.coli and HIV) | disease related symptoms [2] | colon cancer status (colon cancer) | plaque destabilization and heart attack [3] | % Infection (VSV) | Mean (cells infected) (VSV) | Mean (cells infected) (AMLV; […], no-inhibitor AMLV mean 164904) | % Infection (AMLV; [6]) | Mean (cells infected) (HIV (denoted NL4-3); […], no-inhibitor NL4-3 mean 108400, cells only 66) | % Infection (HIV (denoted NL4-3); [6]) | development of hepatitis C (hepatitis C) | Flu symptoms (influenza A) | Exacerbation frequency [4] | Beta agonist sensitive response as measured by cardiac output [5] | Blood titers for HIV (HIV)
1 | C/C1=C2/[N-][C@H]([C@H](CC(N)=O)[C@@]2(C)CCC(=O)NC[C@@H](C)OP(=O)([O-])O[C@H]2[C@@H](O)[C@@H](n3cnc4cc(C)c(C)cc43)O[C@@H]2CO)[C@]2(C)N=C(/C(C)=C3N=C(/C=C4N=C1[C@@H](CCC(N)=O)C\4(C)C)[C@@H](CCC(N)=O)[C@]\3(C)CC(N)=O)[C@@H](CCC(N)=O)[C@]2(C)CC(N)=O.[Co+3].[OH-] [vitamin B12, hydroxocobalamin] | 2% | undetectable | Improvement in disease related symptoms is noted | colon cancer free | plaque is not destabilized and no heart attack has occurred | – | – | – | – | – | – | – | – | – | – | –
2 | COC(=O)[C@@H](N)CCCNC(=N)N[N+](=O)[O-] [Inhibitor A, N^G-nitro-L-arginine methyl ester] | – | – | – | – | – | 41.9% | 120209 | 60090 | 36.4% | 50359 | 46.5% | – | – | – | – | –
3 | CNC(=N)NCCC[C@H](N)C(=O)O [L-NMA, L-methylarginine] | 2% | – | Improvement in disease related symptoms is noted | colon cancer free | plaque is not destabilized and no heart attack has occurred | – | – | – | – | – | – | does not develop hepatitis C | Flu symptoms disappear | once a year | 3.5 L/min | restive
